Data set [1] in a line: Metabolic stability in human liver microsomes assessed as GOXG1-met2 formation at 6.13 uM incubated for 1 hr by LC-MS analysis. The data set is classed as ADME, Microsome. In general terms: Microsomes from liver hold many membrane-bound enzymes, among them those of drug oxidation.
The nature of data set [2]: Drug uptake in human DU-145 cells assessed as release of gemcitabine at 10 uM measured upto 8 hrs by LC-MS/MS method. Format: ADME, cell-based. Conditions: du-145, 8 h; call rule not given here.
In data set [3] the target is T1, Gonadotropin-releasing hormone receptor (Homo sapiens, UniProt P30968).
T1 sequence (P30968 whole entry): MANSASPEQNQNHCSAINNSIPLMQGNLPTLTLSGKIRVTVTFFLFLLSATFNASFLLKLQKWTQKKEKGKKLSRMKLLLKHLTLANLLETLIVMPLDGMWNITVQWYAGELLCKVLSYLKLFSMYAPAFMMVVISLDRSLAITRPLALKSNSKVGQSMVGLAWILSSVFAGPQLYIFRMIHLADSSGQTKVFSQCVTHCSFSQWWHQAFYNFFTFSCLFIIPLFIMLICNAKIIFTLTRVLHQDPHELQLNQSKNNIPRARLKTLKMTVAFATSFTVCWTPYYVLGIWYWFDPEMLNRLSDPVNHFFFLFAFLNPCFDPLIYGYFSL
Nature of the data set: Displacement of [125I]-DTrp6-LHRH from human GnRH-R by radioligand binding assay.

A short description of data set [4]: Prodrug conversion in mouse C57BL/6N assessed as gemcitabine release at 10 mg/kg, IP measured 1 to 2.5 hrs by LC-MS/MS analysis. Format: ADME, organism-based. Conditions: in vivo, time 1-2.5 hrs.
A short description of data set [5]: In vivo agonist activity at GnRH-R in C57BL6/N mouse assessed as release of testosterone in blood at 639.21 ug/kg, ip measured after 2 hrs by LC-MS/MS analysis. The data set is classed as functional. The note with it: dose 639.21 µg/kg.
The nature of data set [6]: Stability in human DU-145 cells at 1 uM measured upto 10 hrs by LC-MS/MS method. Format: ADME, cell-based. The note with it: du-145, 10 h.
A further data set relates to DU-145. Description: Antiproliferative activity against human DU-145 cells measured after 72 hrs by MTT assay. The data set is classed as functional, cell-based. Conditions: DU-145, 72 h. (Formazan colour is commonly taken as a measure of viable cells.)
The nature of data set [7]: Drug metabolism in human plasma assessed as release of gemcitabine at 1 ug/ml measured after 4 hrs by LC-MS/MS method. Format: ADME, cell-free. Conditions: dose 1 µg/ml.
Data set [8] in a line: Prodrug conversion in mouse C57BL/6N assessed as gemcitabine release at 10 mg/kg, IP measured after 15 mins by LC-MS/MS analysis. Format: ADME, organism-based. Conditions: in vivo, 0.25 h.
The nature of data set [9]: Drug metabolism in human DU-145 cells assessed as release of gemcitabine at 1 uM measured after 24 hrs by LC-MS/MS method. The data set is classed as ADME, cell-based. Conditions: du-145, 24 h.
The nature of data set [10]: Drug uptake in human DU-145 cells at 10 uM measured upto 8 hrs by LC-MS/MS method. Conditions: du-145, 8 h. Format: ADME, cell-based.
Data set [11] is described as follows: Stability in human plasma at 1 ug/ml measured after 4 hrs by LC-MS/MS method. The data set is classed as ADME, cell-free. The note with it: at 1 µg/mL.
Data set [12] can be described thus: Prodrug conversion in mouse C57BL/6N assessed as gemcitabine release at 10 mg/kg, IP measured after 30 mins by LC-MS/MS analysis. The data set is classed as ADME, organism-based. The note with it: in vivo, 0.5 h.
The next data set deals with PC-3. Nature of the data set: Antiproliferative activity against human PC-3 cells measured after 72 hrs by MTT assay. Format: functional, cell-based. The note with it: PC-3, 72 h.
Data set [13] is described as follows: Metabolic stability in mouse liver microsomes assessed as GOXG1-met2 formation at 6.13 uM incubated for 1 hr by LC-MS analysis. Format: ADME, Microsome.
The nature of data set [14]: Drug uptake in C57BL/6N mouse blood at 10 mg/kg, IP measured after 30 mins of dosing by LC-MS/MS analysis. Format: ADME, organism-based. The note with it: whole blood, read-out: Drug uptake.
Data set [15] is described as follows: In vivo agonist activity at GnRH-R in C57BL6/N mouse assessed as release of testosterone in blood at 105.2 ug/kg, ip measured after 2 hrs by LC-MS/MS analysis. Format: functional. Conditions: dose 105.2 µg/kg.
The nature of data set [16]: In vivo agonist activity at GnRH-R in C57BL6/N mouse assessed as release of testosterone in blood at 483.6 ug/kg, ip measured after 2 hrs by LC-MS/MS analysis. Format: functional. The note with it: dose 483.6 µg/kg.

Each structure is given as a SMILES string. Where a SMILES comes first, the peptide text is derived from it. [ ]: non-standard residue; d: D form. The star is where a group is joined. ξ: configuration not given here. X1 = Nc1ccn(C2OC(COC(=O)CO/N=C/C(=O)*)C(O)C2(F)F)c(=O)n1; X2 = O=C(CO/N=C/C(=O)*)Nc1ccn(C2OC(CO)C(O)C2(F)F)c(=O)n1; X3 = Nc1ccn(C2OC(CO)C(OC(=O)CO/N=C/C(=O)*)C2(F)F)c(=O)n1; ξAla(indol-2-yl) = NC(Cc1cc2ccccc2[nH]1)C(=O)O; pGlu = O=C1CC[CH](C(=O)O)N1

As for `CC(C)CC(NC(=O)C(CCCCNC(=O)/C=N/OCC(=O)OCC1OC(n2ccc(N)nc2=O)C(F)(F)C1O)NC(=O)C(Cc1ccc(O)cc1)NC(=O)C(CO)NC(=O)C(Cc1cc2ccccc2[nH]1)NC(=O)C(Cc1c[nH]cn1)NC(=O)C1CCC(=O)N1)C(=O)NC(CCCNC(=N)N)C(=O)N1CCCC1C(=O)NCC(N)=O` (stereo unspecified) ([pGlu]H[ξAla(indol-2-yl)]SYK(X1)LRPG-NH2; configuration not given here), the Drug metabolism result in data set [1] was “Metabolite_Detected”; in [4] it was 600 ng/mL; in data set [7], “Metabolite_Detected”; in data set [8], 406 ng/mL; in data set [12] it was 385 ng/mL; in data set [13], “Metabolite_Detected”. Besides, the Drug uptake entry in [2] and in data set [10] was “Active” in each case. The concentration for half-maximal inhibition (IC50) amounted to 1.9 nM in data set [3], 611 nM in the data set on DU-145 and 754 nM in the data set on PC-3. For the same molecule, the Activity in [5] was 40.1 ng/mL. Besides, the Stabilty entry in data set [6], in [9] and in data set [11] was “Stable” each time.

`CC(C)CC(NC(=O)C(CCCCNC(=O)/C=N/OCC(=O)Nc1ccn(C2OC(CO)C(O)C2(F)F)c(=O)n1)NC(=O)C(Cc1ccc(O)cc1)NC(=O)C(CO)NC(=O)C(Cc1cc2ccccc2[nH]1)NC(=O)C(Cc1c[nH]cn1)NC(=O)C1CCC(=O)N1)C(=O)NC(CCCNC(=N)N)C(=O)N1CCCC1C(=O)NCC(N)=O` (stereo unspecified) ([pGlu]H[ξAla(indol-2-yl)]SYK(X2)LRPG-NH2; configuration not given here): the Drug uptake entry in [2] and in data set [10] was “Active” in each case. The Stabilty entry in data set [6], in data set [9] and in data set [11] was “Stable” throughout. The half-maximal inhibitory concentration (IC50) worked out at 590 nM with DU-145 and 833 nM in the data set on PC-3. In addition, the Drug metabolism result in data set [7] is listed as “Metabolite_Detected”.

On to `CC(C)CC(NC(=O)C(CCCCNC(=O)/C=N/OCC(=O)OC1C(CO)OC(n2ccc(N)nc2=O)C1(F)F)NC(=O)C(Cc1ccc(O)cc1)NC(=O)C(CO)NC(=O)C(Cc1cc2ccccc2[nH]1)NC(=O)C(Cc1c[nH]cn1)NC(=O)C1CCC(=O)N1)C(=O)NC(CCCNC(=N)N)C(=O)N1CCCC1C(=O)NCC(N)=O` (stereo unspecified) ([pGlu]H[ξAla(indol-2-yl)]SYK(X3)LRPG-NH2; configuration not given here), for which the Drug uptake entry in data set [2] and in data set [10] was “Active” in each case. Also, the Stabilty result in [6], in data set [9] and in data set [11] was “Unstable” throughout. Moreover, the half-maximal inhibitory concentration (IC50) in the data set with DU-145 was 494 nM; in the data set with PC-3, 675 nM. The Drug metabolism result in [7] is given as “Metabolite_Detected”.

As to `Nc1ccn([C@@H]2O[C@H](CO)[C@@H](O)C2(F)F)c(=O)n1` [GEMCITABINE], the values for the IC50 in the data set with DU-145 and in the data set on PC-3 were 399 nM and 546 nM, respectively. The concentration at 0.5 h in [14] stood at 685 ng/mL. Moreover, the Activity in data set [15] stood at 0.3 ng/mL.

As for `CCNC(=O)[C@@H]1CCCN1C(=O)[C@H](CCCNC(=N)N)NC(=O)[C@H](CC(C)C)NC(=O)[C@@H](CC(C)C)NC(=O)[C@H](Cc1ccc(O)cc1)NC(=O)[C@H](CO)NC(=O)[C@H](Cc1c[nH]c2ccccc12)NC(=O)[C@H](Cc1c[nH]cn1)NC(=O)[C@@H]1CCC(=O)N1` [LEUPROLIDE], the Activity in [16] is 40.9 ng/mL.

What is called IC50 is the point on the concentration scale where inhibition reaches its midpoint.

The values above are taken from ChEMBL document CHEMBL4813919, “Development of programmable gemcitabine-GnRH pro-drugs bearing linker controllable "click" oxime bond tethers and preclinical evaluation against prostate cancer” (Eur J Med Chem, 2021).
